Experimental data reported in article PMC11354909, “Preclinical Evaluation of Soluble Epoxide Hydrolase Inhibitor AMHDU against Neuropathic Pain” (International Journal of Molecular Sciences, 2024).
Values joined by “and” are separate entries in the source; they are usually repeats but may differ in a detail not shown here. Equal entries are not always repeated. “Also recorded” adds a separate entry of the source. Where two headings read alike, the source gives them in different places.

Tests used:
[1] = target: soluble epoxide hydrolase (sEH); set-up: method as in PMID 24685540; conditions: slow tight binding sEH inhibitor; cited from earlier work
[2] = test system: pain threshold of inflamed paw, adjuvant inflammation; experiment: Randall–Selitto test in adjuvant inflammation (analgesic activity); assay type: in vivo, rat
[3] = Acute oral toxicity (OECD test No. 423); conditions: for Adrenal glands mass ratio to whole body weight / Brain mass ratio to whole body weight / Heart mass ratio to whole body weight / Kidneys mass ratio to whole body weight / Liver mass ratio to whole body weight / Lungs mass ratio to whole body weight / Ovaries mass ratio to whole body weight / Spleen mass ratio to whole body weight / Thymus mass ratio to whole body weight: 2 weeks after single intragastric dose, m ± SD
Method: The acute toxicity of the substance by intragastric administration to female outbred rats was studied; the toxicity class, tolerated, toxic, lethal doses and character of toxic effect were determined according to the OECD test No. 423.
Experiments were performed on sexually mature laboratory white mongrel female rats, divided into experimental and control groups. Experimental animals were administered the AMHDU substance diluted in 50% dimethyl sulfoxide solution in the recommended GOST 32644-2014 initial dose of 300 mg/kg (n = 6), as well as the maximum dose of 2000 mg/kg (n = 3) in the maximum allowable volume of 20 mL/kg once intra-gastrically. Control animals (n = 6) were injected with dimethyl sulfoxide diluted 1:1 with purified water at volumes identical to those of the experimental animals. The animals were monitored for 2 weeks, continuously for the first 4 h after injection. Routine necropsy of all surviving animals was performed on day 15.

[4] = Pharmacokinetic study, intraperitoneal injection; assay type: in vivo, male Swiss–Webster mice
Method: Animal experiments were approved by the Animal Use and Care Committee of University of California, Davis. Compounds were formulated in 5% EtOH, 95% PEG400 at a concentration of 0.25 mg/mL. […] […] For compound detection in plasma, 10 µL whole blood was sampled by tail nick and transferred immediately to 50 µL water containing 0.1% EDTA. Samples were extracted as previously described and stored at −20 °C until analysis. Samples were analysed by LC-MS/MS on an Agilent SL 1200 series LC system (Agilent, Palo Alto, CA, USA) connected to a 4000 Qtrap mass spectrometer (Applied Biosystems Instrument Corporation, Foster City, CA, USA) with Turbo V ion source. Liquid chromatography was performed on a Kinetex R© C18 column (100 × 2.1 mm, 1.7 μm). The mass spectrometer was operated in positive modes with primary MRM scan of 499.377/143.153 and secondary scans of 499.377/149.190 and 499.377/166.204. Peaks were integrated using Analyst software v 1.6.3 (Ab Sciex, Washington, DC, USA) and quantified against a standard curve as previously described.

rat paw edema model = experiment: Freund's adjuvant rat paw edema model (anti-inflammatory activity); assay type: in vivo; conditions: for effect on paw edema (reduction of exudative reaction): day 4
[5] = test system: STZ-rat neuropathic pain model; experiment: Tactile allodynia (von Frey) in streptozotocin diabetic polyneuropathy; assay type: in vivo
Method: To evaluate the effect of the compound on the development of neuropathic pain, tactile hyperalgesia was evaluated in diabetic polyneuropathy in rats with 2-week streptozotocin-induced diabetes (35 mg/kg intraperitoneally). Only animals with developed allodynia and hyperalgesia were taken into the experiment, with 50% pain response indices not exceeding 6 g. Groups were formed randomly (n = 6). Tactile allodynia in rats was assessed by registering the pressure at which the animals jerked the right hind paw, avoiding exposure to stimuli of increasing degree. VonFrey hairs, which are 20 monofilaments of nylon filaments of different diameters attached to plastic handles, were applied to the right hind paw in turn from below through the mesh. The comparison drug gabapentin as well as the test compound AMHDU dissolved in 10% DMSO was administered intraperitoneally in 10 mg/kg dose 60 min. before the experiment. An equivalent volume of solvent was administered to control animals. The experiment was started with a monofilament labeled 4.31. If there was no response after 5 incidents of touching, the monofilament was successively changed to the next monofilament with higher strength. […] The 50% threshold of paw retraction during successive increases and decreases in stimulus strength was determined using the UP-AND-DOWN method.

[6] = individual animals No. 1-4, i.p., table dose 1 mg/kg, 1 mg/kg

Compound: O=C(NCCCCCCNC(=O)NCC12CC3CC(CC(C3)C1)C2)NCC12CC3CC(CC(C3)C1)C2 [AMHDU, 1,1′-(hexane-1,6-diyl)bis(3-((adamantan-1-yl)methyl)urea)]
- IC50 [1]: 0.5 nM
- Ki [1]: 3.1 nM
- effect on pain threshold ([2]; 5 mg/kg i.p. 2 times a day for 4 days): no significant suppression of the pain threshold
- increase of paw-pulling threshold ([2]; 30 mg/kg i.p. 2 times a day for 4 days): 38%
- analgesic activity compared with reference drugs ([2]; AMHDU 30 mg/kg i.p. vs celecoxib 10 mg/kg, dexamethasone 5 mg/kg): superior to both dexamethasone and celecoxib
- Adrenal glands mass ratio, change compared to control group ([3]; 300 mg/kg, 2 weeks): –8.5%
- Brain mass ratio, change compared to control group ([3]; 300 mg/kg, 2 weeks): –0.1%
- Heart mass ratio, change compared to control group ([3]; 300 mg/kg, 2 weeks): –6.4%
- Kidneys mass ratio, change compared to control group ([3]; 300 mg/kg, 2 weeks): –3.1%
- Liver mass ratio, change compared to control group ([3]; 300 mg/kg, 2 weeks): 2.1%
- Lungs mass ratio, change compared to control group ([3]; 300 mg/kg, 2 weeks): –3.5%
- Ovaries mass ratio, change compared to control group ([3]; 300 mg/kg, 2 weeks): –1.0%
- Spleen mass ratio, change compared to control group ([3]; 300 mg/kg, 2 weeks): 0.5%
- Thymus mass ratio, change compared to control group ([3]; 300 mg/kg, 2 weeks): –4.1%
- Adrenal glands mass ratio to whole body weight ([3]; 300 mg/kg): 0.04 ± 0.004%
- Brain mass ratio to whole body weight ([3]; 300 mg/kg): 0.72 ± 0.02%
- Heart mass ratio to whole body weight ([3]; 300 mg/kg): 0.33 ± 0.01%
- Kidneys mass ratio to whole body weight ([3]; 300 mg/kg): 0.62 ± 0.02%
- Liver mass ratio to whole body weight ([3]; 300 mg/kg): 3.03 ± 0.12%
- Lungs mass ratio to whole body weight ([3]; 300 mg/kg): 0.60 ± 0.04%
- Ovaries mass ratio to whole body weight ([3]; 300 mg/kg): 0.05 ± 0.003%
- Spleen mass ratio to whole body weight ([3]; 300 mg/kg): 0.48 ± 0.01%
- Thymus mass ratio to whole body weight ([3]; 300 mg/kg): 0.17 ± 0.03%
- Adrenal glands mass ratio, change compared to control group ([3]; 2000 mg/kg, 2 weeks): –14.4%
- Brain mass ratio, change compared to control group ([3]; 2000 mg/kg, 2 weeks): –0.3%
- Heart mass ratio, change compared to control group ([3]; 2000 mg/kg, 2 weeks): –10.4%
- Kidneys mass ratio, change compared to control group ([3]; 2000 mg/kg, 2 weeks): 0.4%
- Liver mass ratio, change compared to control group ([3]; 2000 mg/kg, 2 weeks): –6.4%
- Lungs mass ratio, change compared to control group ([3]; 2000 mg/kg, 2 weeks): –10.7%
- Ovaries mass ratio, change compared to control group ([3]; 2000 mg/kg, 2 weeks): 18.3%
- Spleen mass ratio, change compared to control group ([3]; 2000 mg/kg, 2 weeks): –9.9%
- Thymus mass ratio, change compared to control group ([3]; 2000 mg/kg, 2 weeks): –11.0%
- Adrenal glands mass ratio to whole body weight ([3]; 2000 mg/kg): 0.03 ± 0.003%
- Brain mass ratio to whole body weight ([3]; 2000 mg/kg): 0.72 ± 0.02%
- Heart mass ratio to whole body weight ([3]; 2000 mg/kg): 0.32 ± 0.01%
- Kidneys mass ratio to whole body weight ([3]; 2000 mg/kg): 0.64 ± 0.03%
- Liver mass ratio to whole body weight ([3]; 2000 mg/kg): 2.77 ± 0.41%
- Lungs mass ratio to whole body weight ([3]; 2000 mg/kg): 0.56 ± 0.03%
- Ovaries mass ratio to whole body weight ([3]; 2000 mg/kg): 0.06 ± 0.01%
- Spleen mass ratio to whole body weight ([3]; 2000 mg/kg): 0.43 ± 0.02%
- Thymus mass ratio to whole body weight ([3]; 2000 mg/kg): 0.16 ± 0.01%
- necropsy: architectonics of internal organs location ([3]; day 15 after intragastric 300 and 2000 mg/kg): no pathological changes
- toxicity class according to the GHS classification ([3]; female, outbred white mongrel, rat, in vivo, 2 weeks): class 5
- LD50 at 2 weeks ([3]; female, outbred white mongrel, rat, in vivo, po, LD50 (acute oral toxicity), intragastric, female rats): > 2000 mg/kg
- LD50 (acute oral toxicity) ([3]; intragastric, female rats): 2000 to 5000 mg/kg
- death in early and distant periods of observation ([3]; single intragastric limit dose 2000 mg/kg, 2 weeks observation): does not contribute to death
- compound left in the bloodstream ([4]; 4 h after injection, i.p. 1.25 mg/kg): none is left in the bloodstream
- AUC ([4]; Swiss-Webster, mouse, whole blood, ip, i.p. 1.25 mg/kg, male mice): 26 ng·h/mL
- half-life ([4]; Swiss-Webster, mouse, whole blood, ip, i.p. 1.25 mg/kg, male mice, read-out: half-life (Thalf)): ~0.167 h
- AUClast [4, 6]: 24 ng·h/mL and 35 ng·h/mL and 31 ng·h/mL and 16 ng·h/mL
- Cmax [4, 6]: 24.32 ng/mL and 53.00 ng/mL and 31.93 ng/mL and 30.86 ng/mL
- MRT [4, 6]: 1.51 h and 1.04 h and 1.08 h and 0.55 h
- Thalf [4, 6]: 0.18 h and 0.16 h and 0.13 h and 0.15 h
- Tmax [4, 6]: 2.0 h and 0.5 h
- Thalf ([4]; m ± SE of 4 mice, i.p.): 0.16 ± 0.02 h
- AUC(0-t) ([4]; male, Swiss-Webster, mouse, whole blood, ip, 1.25 mg/kg, m ± SE of 4 mice): 26.4 ± 8.6 ng·h/mL
- Cmax ([4]; male, Swiss-Webster, mouse, whole blood, ip, 1.25 mg/kg, m ± SE of 4 mice, i.p., read-out: Cmax): 35 ± 12.4 ng/mL
- MRT ([4]; male, Swiss-Webster, mouse, whole blood, ip, 1.25 mg/kg, m ± SE of 4 mice, i.p., read-out: MRT): ~1 h
- Tmax ([4]; male, Swiss-Webster, mouse, whole blood, ip, 1.25 mg/kg, mean of 4 mice, i.p., read-out: Tmax): 1 h
- effect on the volume of the affected limb (paw edema) (rat paw edema model; 5 mg/kg i.p. 2 times a day for 4 days, day 4 after adjuvant): no significant effect
- reduction of the primary exudative reaction (paw edema) (rat paw edema model; 30 mg/kg i.p. 2 times a day for 4 days, day 4 after adjuvant): no statistically significant reduction
- anti-inflammatory effect (overall conclusion) (rat paw edema model; 5 and 30 mg/kg i.p.): lacks anti-inflammatory activity; also recorded: negligible anti-inflammatory effect
- analgesic activity compared with gabapentin ([5]; 10 mg/kg i.p. both drugs): comparable to standard of care gabapentin
- pain threshold relative to the control group ([5]; 10 mg/kg i.p., 60 min before the experiment): 1.5 times

Compound: Cc1ccc(-c2cc(C(F)(F)F)nn2-c2ccc(S(N)(=O)=O)cc2)cc1 [celecoxib, reference compound]
- effect on paw edema (reduction of exudative reaction) (rat paw edema model; celecoxib 10 mg/kg i.p. 2 times a day for 4 days): 51%

Compound: C[C@@H]1C[C@H]2[C@@H]3CCC4=CC(=O)C=C[C@]4(C)[C@@]3(F)[C@@H](O)C[C@]2(C)[C@@]1(O)C(=O)CO [dexamethasone, reference compound]
- effect on paw edema (reduction of exudative reaction) (rat paw edema model; dexamethasone 5 mg/kg i.p. 2 times a day for 4 days): 65%
